Data taken from patent US20240287124A1, “PRODRUGS OF 4'-SUBSTITUTED NUCLEOSIDE REVERSE TRANSCRIPTASE INHIBITORS” (Merck Sharp & Dohme LLC, priority 2023, published 2024).
pIC50: −log10 of the molar value. Converted amounts (≈) assume the structure as drawn. Like-named read-outs stand apart in the source and are kept apart here.

Key:
[1] = Aqueous solubility in PBS, pH 7.4; type: physicochemical; details: pH 7.4 phosphate buffered saline, 24 hours, amorphous or crystalline material; for solubility at 24 h: pH 7.4, aqueous buffer, thermodynamic from solid, read-out: Aqu. Solubility
Method: Aqueous solubility of the compounds was determined by suspending excess solid (typically 0.3-0.5 mg) in PBS, pH 7.4, at a concentration of 0.5 mg/mL. The suspension was vortexed for 10-30 seconds to wet the material and stirred at 600 rpm for 24 hours. For analysis by UPLC, 150 μL aliquot sample was transferred into a […] PVDF spin filter and centrifuged at 14,000 rpm for 5 minutes. 100 μL of the filtrate was diluted with 100 μL 1:1 Acetonitrile (ACN):H2O. The resultant samples were analyzed using UPLC and quantified against a standard curve of the compound of interest dissolved in 1:1 ACN:H2O. The retains of the solids were checked by XRPD and PLM to determine if the phase of the material was crystalline or amorphous.

[2] = test system: HIV-1 wild-type (R8) virus; assay: Viral KINetics in Green cells (VIKING) assay, HIV-1 replication in MT4-GFP reporter cells; type: cell-based; details: MT4-GFP cells, HIV-1 wild-type (R8), read-out: Viking (10% NHS), IC50
How it was run: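 Compounds in 3-fold, 10-point series (typical 4 μM-0.2 nM) in 10% normal human serum received MT4 GFP-reporter T cells pre-infected overnight with wild-type R8 virus (MOI ~0.01). Ratio of GFP-positive cells at 72 vs 48 h defined replication; IC50 from nonlinear 4-parameter dose-response fitting.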

[3] = Human immunodeficiency virus 1, 10% normal human serum

| solubility at 24 h ([1]; phosphate buffered saline) | SMILES | pIC50 [2, 3] | solubility at 24 h [1] | Aqu. Solubility [1] | pIC50 ([2]; 10% normal human serum) |
| --- | --- | --- | --- | --- | --- |
| < 1 µg/mL | C#C[C@]1(COC(=O)OCc2ccccc2)O[C@@H](n2ccc3c(N)nc(Cl)nc32)C[C@@H]1OC(=O)OCCCCCC [Example 68, ((2R,3S,5R)-5-(4-amino-2-chloro-7H-pyrrolo[2,3-d]pyrimidin-7-yl)-2-ethynyl-3-(((hexyloxy)carbonyl)oxy)tetrahydrofuran-2-yl)methylbenzyl carbonate] | 8.19 |  |  |  |
| 24 µg/mL (≈ 47.5 µM) | C#C[C@]1(COC(=O)Cc2ccc(Br)cc2)O[C@@H](n2ccc3c(N)nc(Cl)nc32)C[C@@H]1O [Example 73, ((2R,3S,5R)-5-(4-amino-2-chloro-7H-pyrrolo[2,3-d]pyrimidin-7-yl)-2-ethynyl-3-hydroxytetrahydrofuran-2-yl)methyl 2-(4-bromophenyl)acetate] | 8.49 |  |  |  |
| < 1 µg/mL | C#C[C@]1(COC(=O)CCCC[C@@H]2SC[C@@H]3NC(=O)N[C@@H]32)O[C@@H](n2ccc3c(N)nc(Cl)nc32)C[C@@H]1OC(=O)CCCC[C@@H]1SC[C@@H]2NC(=O)N[C@@H]21 [Example 74] | 7.16 |  |  |  |
|  | C#C[C@]1(COP(=O)(N[C@@H](C)C(=O)OC(C)C)Oc2ccc3ccccc3c2)O[C@@H](n2ccc3c(N)nc(Cl)nc32)C[C@@H]1O (some centres unmarked) [Example 75] | 7.33 | 30 µg/mL (≈ 47.8 µM) |  |  |
|  | C#C[C@]1(COP(=O)(N[C@@H](C)C(=O)OC(C)C)Oc2ccc3ccccc3c2)O[C@@H](n2ccc3c(N)nc(Cl)nc32)C[C@@H]1O (some centres unmarked) [Example 76] |  |  | 23 µg/mL | 7.51 |
| 14 µg/mL (≈ 33.4 µM) | C#C[C@]1(CO)O[C@@H](n2ccc3c(N)nc(Cl)nc32)C[C@@H]1OC(=O)C1CCCCC1 [Example 77] | 8.30 |  |  |  |
| 2 µg/mL (≈ 4.58 µM) | C#C[C@]1(CO)O[C@@H](n2ccc3c(N)nc(Cl)nc32)C[C@@H]1OC(=O)OCC(CC)CC [Example 78] | 8.17 |  |  |  |
| < 1 µg/mL | C#C[C@]1(CO)O[C@@H](n2ccc3c(N)nc(Cl)nc32)C[C@@H]1OC(=O)OCCCCCCCC [Example 79] | 8.37 |  |  |  |
| 305 µg/mL (≈ 773 µM) | C#C[C@]1(CO)O[C@@H](n2ccc3c(N)nc(Cl)nc32)C[C@@H]1OC(=O)OCCC [Example 80] | 8.00 |  |  |  |
| 2 µg/mL (≈ 4.54 µM) | C#C[C@]1(CO)O[C@@H](n2ccc3c(N)nc(Cl)nc32)C[C@@H]1OC(=O)CCc1ccccc1 [Example 81] | 8.48 |  |  |  |
| 11 µg/mL (≈ 26.9 µM) | C#C[C@]1(CO)O[C@@H](n2ccc3c(N)nc(Cl)nc32)C[C@@H]1OC(=O)OCCCC [Example 82] | 8.40 |  |  |  |
| 69 µg/mL (≈ 163 µM) | C#C[C@]1(CO)O[C@@H](n2ccc3c(N)nc(Cl)nc32)C[C@@H]1OC(=O)OC(CC)CC [Example 84] | 6.89 |  |  |  |
| 145 µg/mL (≈ 343 µM) | C#C[C@]1(COC(=O)OC(CC)CC)O[C@@H](n2ccc3c(N)nc(Cl)nc32)C[C@@H]1O [Example 86] | 7.89 |  |  |  |
| < 1 µg/mL | C#C[C@]1(COC(=O)CCCCCCCCCCCCC)O[C@@H](n2ccc3c(N)nc(Cl)nc32)C[C@@H]1O [Example 87] | 8.42 |  |  |  |
| 157 µg/mL (≈ 375 µM) | C#C[C@]1(COC(=O)C2CCCCC2)O[C@@H](n2ccc3c(N)nc(Cl)nc32)C[C@@H]1O [Example 88] | 8.36 |  |  |  |
| 365 µg/mL (≈ 897 µM) | C#C[C@]1(COC(=O)CC(C)(C)C)O[C@@H](n2ccc3c(N)nc(Cl)nc32)C[C@@H]1O [Example 89] | 7.54 |  |  |  |
| < 1 µg/mL | C#C[C@]1(COC(=O)CCCCCCCCCCC)O[C@@H](n2ccc3c(N)nc(Cl)nc32)C[C@@H]1O [Example 90] | 8.41 |  |  |  |
| 72 µg/mL (≈ 163 µM) | C#C[C@]1(COC(=O)[C@H](C)c2ccccc2)O[C@@H](n2ccc3c(N)nc(Cl)nc32)C[C@@H]1O [Example 100] | 8.60 |  |  |  |
| 19 µg/mL (≈ 43.1 µM) | C#C[C@]1(COC(=O)[C@@H](C)c2ccccc2)O[C@@H](n2ccc3c(N)nc(Cl)nc32)C[C@@H]1O [Example 101] | 8.47 |  |  |  |
| < 1 µg/mL | C#C[C@]1(COC(=O)OCCCCCCCC)O[C@@H](n2ccc3c(N)nc(Cl)nc32)C[C@@H]1OC(=O)CC [Example 113] | 7.59 |  |  |  |
| 66 µg/mL (≈ 149 µM) | C#C[C@]1(COC(=O)OCc2ccccc2)O[C@@H](n2ccc3c(N)nc(Cl)nc32)C[C@@H]1O [Example 114, ((2R,3S,5R)-5-(4-amino-2-chloro-7H-pyrrolo[2,3-d]pyrimidin-7-yl)-2-ethynyl-3-hydroxytetrahydrofuran-2-yl)methyl benzyl carbonate] | 8.41 |  |  |  |
| < 1 µg/mL | C#C[C@]1(COC(=O)OCC23CC4CC(CC(C4)C2)C3)O[C@@H](n2ccc3c(N)nc(Cl)nc32)C[C@@H]1O [Example 115] | 8.24 |  |  |  |
| 39 µg/mL (≈ 95.9 µM) | C#C[C@]1(COC(=O)CCCCC)O[C@@H](n2ccc3c(N)nc(Cl)nc32)C[C@@H]1O [Example 116] | 8.38 |  |  |  |

| solubility at 24 h ([1]; phosphate buffered saline) | SMILES | pIC50 [2, 3] | solubility at 24 h [1] | Aqu. Solubility [1] | pIC50 ([2]; 10% normal human serum) |
| --- | --- | --- | --- | --- | --- |
| < 1 µg/mL | C#C[C@]1(COC(=O)OCCCCCCCCCCCC)O[C@@H](n2ccc3c(N)nc(Cl)nc32)C[C@@H]1O [Example 117] | 8.40 |  |  |  |
| 57 µg/mL (≈ 135 µM) | C#C[C@]1(COC(=O)CCCCCC)O[C@@H](n2ccc3c(N)nc(Cl)nc32)C[C@@H]1O [Example 119] | 8.46 |  |  |  |
| 108 µg/mL (≈ 247 µM) | C#C[C@]1(COC(=O)OCCCCCC)O[C@@H](n2ccc3c(N)nc(Cl)nc32)C[C@@H]1O [Example 120] | 8.42 |  |  |  |
| 7 µg/mL (≈ 15.5 µM) | C#C[C@]1(COC(=O)OCCCCCCC)O[C@@H](n2ccc3c(N)nc(Cl)nc32)C[C@@H]1O [Example 121] | 8.51 |  |  |  |
|  | C#C[C@]1(COC(=O)OCc2ccccc2)O[C@@H](n2ccc3c(N)nc(Cl)nc32)C[C@@H]1O [Example 122] |  |  | 107 µg/mL | 8.40 |
| 71 µg/mL (≈ 155 µM) | C#C[C@]1(COC(=O)OCCc2ccccc2)O[C@@H](n2ccc3c(N)nc(Cl)nc32)C[C@@H]1O [Example 124] | 8.44 |  |  |  |
| 21 µg/mL (≈ 43.8 µM) | C#C[C@]1(COC(=O)OCCCCCCCCC)O[C@@H](n2ccc3c(N)nc(Cl)nc32)C[C@@H]1O [Example 126] | 8.59 |  |  |  |
| 37 µg/mL (≈ 81.3 µM) | C#C[C@]1(COC(=O)CCCc2ccccc2)O[C@@H](n2ccc3c(N)nc(Cl)nc32)C[C@@H]1O [Example 129] | 8.51 |  |  |  |
| 341 µg/mL (≈ 803 µM) | C#C[C@]1(COCOC(=O)OC(C)C)O[C@@H](n2ccc3c(N)nc(Cl)nc32)C[C@@H]1O [Example 133] | 8.57 |  |  |  |
| < 1 µg/mL | C#C[C@]1(COCOC(=O)OCCCCCCCCCCCC)O[C@@H](n2ccc3c(N)nc(Cl)nc32)C[C@@H]1O [Example 134] | 8.43 |  |  |  |
| < 1 µg/mL | C#C[C@]1(COCOC(=O)CCCCCCCCC)O[C@@H](n2ccc3c(N)nc(Cl)nc32)C[C@@H]1O [Example 136] | 8.49 |  |  |  |
| < 1 µg/mL | C#C[C@]1(COC(=O)OC(CC)CC)O[C@@H](n2ccc3c(N)nc(Cl)nc32)C[C@@H]1OC(=O)OC(CC)CC [Example 142] | 5.75 |  |  |  |
| 229 µg/mL (≈ 493 µM) | C#C[C@]1(COC(=O)OCc2oc(=O)oc2C)O[C@@H](n2ccc3c(N)nc(Cl)nc32)C[C@@H]1O [Example 143] | 8.54 |  |  |  |
| 38 µg/mL (≈ 71 µM) | C#C[C@]1(COC(=O)CCCC[C@@H]2SC[C@@H]3NC(=O)N[C@@H]32)O[C@@H](n2ccc3c(N)nc(Cl)nc32)C[C@@H]1O [Example 145] | 8.49 |  |  |  |
| 7 µg/mL (≈ 15.1 µM) | C#C[C@]1(COC(=O)CCCC)O[C@@H](n2ccc3c(N)nc(Cl)nc32)C[C@@H]1OC(=O)OCC [Example 146] | 7.72 |  |  |  |
| < 1 µg/mL | C#C[C@]1(CO)O[C@@H](n2ccc3c(N)nc(Cl)nc32)C[C@@H]1OC(=O)OCCCc1ccccc1 [Example 152] | 8.22 |  |  |  |
| < 1 µg/mL | C#C[C@]1(CO)O[C@@H](n2ccc3c(N)nc(Cl)nc32)C[C@@H]1OC(=O)OCCCCCCC [Example 153] | 8.42 |  |  |  |
| < 1 µg/mL | C#C[C@]1(CO)O[C@@H](n2ccc3c(N)nc(Cl)nc32)C[C@@H]1OC(=O)OCC1CCCCC1 [Example 154] | 8.46 |  |  |  |
| 66 µg/mL (≈ 150 µM) | C#C[C@]1(CO)O[C@@H](n2ccc3c(N)nc(Cl)nc32)C[C@@H]1OC(=O)OCCOC(C)=O [Example 156] | 8.49 |  |  |  |
| < 1 µg/mL | C#C[C@]1(CO)O[C@@H](n2ccc3c(N)nc(Cl)nc32)C[C@@H]1OC(=O)OCCCCC[C@@H]1SC[C@@H]2NC(=O)N[C@@H]21 [Example 160] | 7.96 |  |  |  |
| < 1 µg/mL | C#C[C@]1(COC(=O)OCc2cc[nH]c(=O)c2)O[C@@H](n2ccc3c(N)nc(Cl)nc32)C[C@@H]1OC(=O)OCc1ccccc1 [Example 161] | 8.24 |  |  |  |
| < 1 µg/mL | C#C[C@]1(COC(=O)OCCCCCCCCCCCCCC)O[C@@H](n2ccc3c(N)nc(Cl)nc32)C[C@@H]1O [Example 163] | 8.46 |  |  |  |
| 1.9 µg/mL (≈ 2.98 µM) | C#C[C@]1(COC(=O)OCCCCC[C@@H]2SC[C@@H]3NC(=O)N[C@@H]32)O[C@@H](n2ccc3c(N)nc(Cl)nc32)C[C@@H]1OC(=O)OCC [Example 171] | 7.74 |  |  |  |
